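How tested: cells in 96-well plates exposed to compound for 48 hours at five concentrations. The concentration for 50% growth inhibition is given as GI50.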 Active and inactive are the calls of the source. Rule as the data show it: active = GI50 up to about 1.1 µM and inactive = higher.
Experiments:
Assay in all cases: NCI-60 cell line screen, 48 h
[1] = tested on: 786-0
[2] = tested on: A498
[3] = tested on: HCT-116
[4] = tested on: K562
[5] = tested on: KM12
[6] = tested on: M14
[7] = tested on: MCF7
[8] = tested on: Malme-3M
[9] = tested on: NCI-H23
[10] = tested on: OVCAR-4
[11] = tested on: RPMI-8226
[12] = tested on: SF-539
[13] = tested on: SK-OV-3
[14] = tested on: SNB-19
[15] = tested on: T47D
[16] = tested on: TK-10
[17] = tested on: UACC-62
[18] = tested on: UO-31
[19] = tested on: NCI-H226

SMILES | GI50 [1] | GI50 [2] | GI50 [3] | GI50 [4] | GI50 [5] | GI50 [6] | GI50 [7] | GI50 [8] | GI50 [9] | GI50 [10] | GI50 [11] | GI50 [12] | GI50 [13] | GI50 [14] | GI50 [15] | GI50 [16] | GI50 [17] | GI50 [18] | GI50 [19]
Cc1ccc(O)c(C2=CC3=NNC(=O)C3C(c3cccc(Br)c3)C2)c1 (stereo unspecified) | 29.5 µM (inactive) | 42.9 µM (inactive) | 21 µM (inactive) | 25.8 µM (inactive) | 14.9 µM (inactive) | 36.9 µM (inactive) | 11.4 µM (inactive) | 25.9 µM (inactive) | 23.7 µM (inactive) | 8.04 µM (inactive) | 22.1 µM (inactive) | 29.4 µM (inactive) | 14.6 µM (inactive) | 34.2 µM (inactive) | 20.5 µM (inactive) | 18.6 µM (inactive) | 19.6 µM (inactive) | 57.3 µM (inactive) | –
CC(C)(O)C1CC[C@]2(C)[C@H]3CC[C@@H]4[C@@]5(C)CCCC(C)(C)[C@@H]5CC[C@@]4(C)[C@]3(C)CC[C@@H]12 (stereo partly specified) | > 100 µM (inactive) | > 100 µM (inactive) | > 100 µM (inactive) | – | > 100 µM (inactive) | > 100 µM (inactive) | > 100 µM (inactive) | > 100 µM (inactive) | > 100 µM (inactive) | > 100 µM (inactive) | > 100 µM (inactive) | > 100 µM (inactive) | > 100 µM (inactive) | > 100 µM (inactive) | > 100 µM (inactive) | > 100 µM (inactive) | > 100 µM (inactive) | – | –
CC1(C=O)CC(CCc2ccccc2)NC1Cc1ccc(O)cc1 (stereo unspecified) | 15.2 µM (inactive) | 14.6 µM (inactive) | 15.6 µM (inactive) | 16.7 µM (inactive) | 18.2 µM (inactive) | 15.6 µM (inactive) | 14.1 µM (inactive) | – | 23 µM (inactive) | 14.2 µM (inactive) | 16.2 µM (inactive) | 15.3 µM (inactive) | 17.4 µM (inactive) | 14.5 µM (inactive) | 15.8 µM (inactive) | 17.3 µM (inactive) | 16.6 µM (inactive) | 14.5 µM (inactive) | 15.5 µM (inactive)
Cc1ccc(C2SCC(=O)N2c2ccc(-c3ccc(-n4c(-c5ccccc5)nc5ccccc5c4=O)cc3)cc2)cc1 (stereo unspecified) | 45.7 µM (inactive) | > 100 µM (inactive) | – | 64.7 µM (inactive) | 55.8 µM (inactive) | 85.7 µM (inactive) | > 100 µM (inactive) | > 100 µM (inactive) | > 100 µM (inactive) | 51.3 µM (inactive) | > 100 µM (inactive) | – | > 100 µM (inactive) | > 100 µM (inactive) | 24.8 µM (inactive) | > 100 µM (inactive) | > 100 µM (inactive) | 18.6 µM (inactive) | –
c1ccc(B2OCC(C3OB(c4ccccc4)OC4COB(c5ccccc5)OC43)O2)cc1 (stereo unspecified) | > 100 µM (inactive) | > 100 µM (inactive) | > 100 µM (inactive) | > 100 µM (inactive) | > 100 µM (inactive) | > 100 µM (inactive) | > 100 µM (inactive) | > 100 µM (inactive) | > 100 µM (inactive) | > 100 µM (inactive) | > 100 µM (inactive) | > 100 µM (inactive) | > 100 µM (inactive) | > 100 µM (inactive) | > 100 µM (inactive) | > 100 µM (inactive) | > 100 µM (inactive) | > 100 µM (inactive) | –
CCOC(=O)c1cc(C)n(CN(CCO)Cn2nc(C(=O)OCC)cc2C)n1 | 22 µM (inactive) | > 100 µM (inactive) | 18.3 µM (inactive) | 26.9 µM (inactive) | 31.6 µM (inactive) | 18.5 µM (inactive) | 28.2 µM (inactive) | 27.1 µM (inactive) | 21.1 µM (inactive) | 33.4 µM (inactive) | 19.9 µM (inactive) | 17.7 µM (inactive) | > 100 µM (inactive) | 52.4 µM (inactive) | 24.5 µM (inactive) | 80.2 µM (inactive) | 17.8 µM (inactive) | 21.5 µM (inactive) | –
COC1(CC[C@H](C)COC2OC(CO)C(O)C(O)C2O)O[C@H]2C[C@H]3[C@@H]4CC=C5C[C@@H](OC6OC(CO)C(OC7OC(C)C(O)C(O)C7O)C(O)C6OC6OC(C)C(O)C(O)C6O)CC[C@]5(C)[C@H]4CC[C@]3(C)[C@H]2[C@@H]1C (stereo partly specified) | 2.42 µM (inactive) | 23.5 µM (inactive) | – | – | 2.47 µM (inactive) | 3.12 µM (inactive) | 8.45 µM (inactive) | 3.45 µM (inactive) | 5.53 µM (inactive) | 3.78 µM (inactive) | 2.32 µM (inactive) | 1.96 µM (inactive) | 2.82 µM (inactive) | 3.46 µM (inactive) | 2.45 µM (inactive) | 35.6 µM (inactive) | – | 2.47 µM (inactive) | 5.73 µM (inactive)
CCOC(=O)c1ccc(C(=O)/C(C#N)=C2\CCCN2)n1C | > 100 µM (inactive) | > 100 µM (inactive) | > 100 µM (inactive) | 13.3 µM (inactive) | > 100 µM (inactive) | > 100 µM (inactive) | 40.4 µM (inactive) | > 100 µM (inactive) | 97.5 µM (inactive) | > 100 µM (inactive) | 0.703 µM (active) | – | > 100 µM (inactive) | > 100 µM (inactive) | 28.2 µM (inactive) | – | > 100 µM (inactive) | > 100 µM (inactive) | 79.1 µM (inactive)
C/C(=C\c1ccc2c(c1)OCO2)[N+](=O)[O-] | 1.56 µM (inactive) | 7.23 µM (inactive) | 7.16 µM (inactive) | 1.64 µM (inactive) | 1.54 µM (inactive) | 3.65 µM (inactive) | 0.205 µM (active) | 2.84 µM (inactive) | 2.46 µM (inactive) | 4.4 µM (inactive) | 0.225 µM (active) | 2.91 µM (inactive) | – | 2.49 µM (inactive) | 1.64 µM (inactive) | 2.45 µM (inactive) | 2.01 µM (inactive) | 1.19 µM (inactive) | 3.84 µM (inactive)
O=C(/C=C/c1ccc(O)c(O)c1)OCCCOC(=O)/C=C/c1ccc(O)c(O)c1 | 20.2 µM (inactive) | 52.5 µM (inactive) | 18.2 µM (inactive) | 22.3 µM (inactive) | 33.3 µM (inactive) | 19.2 µM (inactive) | 30.6 µM (inactive) | 43.3 µM (inactive) | 20.9 µM (inactive) | 23.2 µM (inactive) | 17.4 µM (inactive) | 41.9 µM (inactive) | 27.2 µM (inactive) | 31.4 µM (inactive) | 35.6 µM (inactive) | 29.3 µM (inactive) | 16.6 µM (inactive) | 7.13 µM (inactive) | –
CCOC(=O)c1ccc2nc3n(c2c1)C(c1c(F)cccc1F)SC3 (stereo unspecified) | 55.7 µM (inactive) | > 100 µM (inactive) | 50.4 µM (inactive) | > 100 µM (inactive) | 81.8 µM (inactive) | > 100 µM (inactive) | 56.8 µM (inactive) | – | 78.9 µM (inactive) | > 100 µM (inactive) | > 100 µM (inactive) | > 100 µM (inactive) | > 100 µM (inactive) | 95.3 µM (inactive) | > 100 µM (inactive) | > 100 µM (inactive) | > 100 µM (inactive) | > 100 µM (inactive) | 15.1 µM (inactive)
C=CC1CCC[N+]1(CC(=O)OCC)Cc1ccccc1 (stereo unspecified) | > 100 µM (inactive) | > 100 µM (inactive) | > 100 µM (inactive) | > 100 µM (inactive) | – | > 100 µM (inactive) | > 100 µM (inactive) | > 100 µM (inactive) | > 100 µM (inactive) | > 100 µM (inactive) | > 100 µM (inactive) | – | > 100 µM (inactive) | > 100 µM (inactive) | > 100 µM (inactive) | > 100 µM (inactive) | > 100 µM (inactive) | > 100 µM (inactive) | > 100 µM (inactive)
O=S(=O)(O)c1ccc(/N=N/c2ccc3c(S(=O)(=O)O)cccc3c2O)c2ccccc12 | > 100 µM (inactive) | > 100 µM (inactive) | > 100 µM (inactive) | – | > 100 µM (inactive) | > 100 µM (inactive) | > 100 µM (inactive) | > 100 µM (inactive) | > 100 µM (inactive) | > 100 µM (inactive) | > 100 µM (inactive) | – | > 100 µM (inactive) | > 100 µM (inactive) | > 100 µM (inactive) | > 100 µM (inactive) | > 100 µM (inactive) | 39.3 µM (inactive) | > 100 µM (inactive)
CO/[N+]([O-])=C\C(=O)N/C=C/C(=O)O | > 100 µM (inactive) | > 100 µM (inactive) | > 100 µM (inactive) | > 100 µM (inactive) | > 100 µM (inactive) | > 100 µM (inactive) | > 100 µM (inactive) | > 100 µM (inactive) | > 100 µM (inactive) | > 100 µM (inactive) | 79.6 µM (inactive) | > 100 µM (inactive) | > 100 µM (inactive) | > 100 µM (inactive) | > 100 µM (inactive) | – | > 100 µM (inactive) | > 100 µM (inactive) | > 100 µM (inactive)
Cc1ccc(/N=C2\C(=O)C3=C(OC(C)(C)CC3)c3ccccc32)cc1 | 1.78 µM (inactive) | 2.06 µM (inactive) | 0.292 µM (active) | 0.197 µM (active) | 1.52 µM (inactive) | 0.459 µM (active) | 0.29 µM (active) | 0.352 µM (active) | 1.08 µM (active) | 0.986 µM (active) | 0.232 µM (active) | – | 1.57 µM (inactive) | 0.851 µM (active) | 0.366 µM (active) | 2.27 µM (inactive) | 1.49 µM (inactive) | 0.652 µM (active) | 2.86 µM (inactive)

— ChEMBL document CHEMBL1201862, “PubChem BioAssay data set” (2004)
